These results are taken from patent publication US20060143838A1, “Herbal dye and process of preparation thereof” (COUNCIL OF SCIENTIFIC & INDUSTRIAL RESEARCH, priority 2004, published 2006).

One experiment relates to Aspergillus niger. In words: Antifungal activity of herbal black dye (disc, inhibition zone). In kind it is cell-based. As to conditions: 25 mg/disc.
A further experiment relates to Candida albicans. Described as above. The experiment is classed as cell-based. As to conditions: 25 mg/disc.

Turning to `COC1=CC(=O)C[C@@H](C)[C@]12Oc1c(Cl)c(OC)cc(OC)c1C2=O` [Griseofulvin], the figures for the inhibition zone in the experiment with Aspergillus niger and with Candida albicans were 10 mm and 8 mm, respectively.
